Source: the NIST ThermoML archive (doi:10.1016/j.tca.2009.08.016)
Numbers after ± are expanded uncertainties.

Experiments:
[1] = Crystal; DTA
[2] = Molar enthalpy of transition or fusion; conditions: Crystal; DSC

Row | Normal melting temperature [1] | Molar enthalpy of transition or fusion [2] | SMILES
1 | 41.93 ± 1.1 °C | 19.2 ± 1 kJ/mol | O=C(Oc1ccccc1)c1ccccc1O [phenyl salicylate]
2 | 67.54 ± 1.1 °C | 16.4 ± 0.5 kJ/mol | CCN(CC)CC(=O)Nc1c(C)cccc1C [2-(diethylamino)-N-(2,6-dimethylphenyl)acetamide]
